Assays:
GSPT1 = test: Western blot, degradation of substrate protein in hPBMCs; format: cell-based, Human
[1] = system: Human acute myeloid leukemia cell line: Kasumi-1; test: Tumor cell proliferation inhibition (CellTiter-Meiluncell luminescent cell viability assay); details: Kasumi 1, 96 h; for inhibition at 0.01 µM: read-out: Inhibition Rate at 10 nM (%); for inhibition at 0.5 µM: read-out: Inhibition Rate at 500 nM (%)
Method: (§1) The tumor cells used herein were cultured in a cell culture medium listed in table 2 at 37°C in an incubator with 5% CO2. Prior to experimentation, all cell lines used were correctly identified by STR profiling, and tested negative for mycoplasma contamination using a mycoplasma detection kit through routine screenings.
(§2) The IC50 values of the compounds of the present disclosure (including the compounds in Table 1 and Examples) were determined using the CellTiter-Meiluncell Luminescent Cell Viability Assay Kit from Dalian Meilun Biotech Co., Ltd. The detailed procedure is as follows: Tumor cells were seeded in 96-well cell culture plates at the densities specified in Table 3. On the following day, the test compounds of the present disclosure were subjected to serial dilution. The dilution can be performed according to one of the following two methods: • (1) The first dilution method: The test compounds of the present disclosure (including the compounds in Table 1 and Examples) were subjected to 5-fold serial dilutions starting from a highest concentration of 2000 µM, resulting in a total of 9 concentrations from high to low (2000, 400, 80, 16, 3.2, 0.64, 0.128, 0.0256, 0.00512 µM). Subsequently, 0.5 µL of the test compound dilution was transferred into the 96-well plate containing the cells, with each well containing 100 µL of cell culture medium. […] Into the 96-well plate, the diluted test compounds and corresponding detection reagents were added, resulting in final test compound concentrations of 500 nM and 10 nM, respectively. The experimental procedure is described below using the diluted 2 µM test compound as an example.
(§3) 0.5 µL of the aforementioned diluted compound of the present disclosure (including the compounds in Table 1 and Examples) was added to the seeded cells in 100 µL of medium, yielding a final test compound concentration of 10 nM. After the cells were treated with the compounds of the present disclosure for a specified period, the cell viability assay reagent was added to the culture medium according to the kit's instructions to determine cell viability. […] All controls were treated using the same procedure as the compounds of the present disclosure. The growth inhibition curves for the compounds of the present disclosure were plotted using Prism GraphPad software, and the IC50 values were calculated therefrom.

[2] = system: Human multiple myeloma cell (MM.1S); test: as above; details: Homo sapiens, MM1.S, 96 h; for inhibition at 0.01 µM: read-out: Inhibition Rate at 10 nM (%); for inhibition at 0.5 µM: read-out: Inhibition Rate at 500 nM (%)
[3] = system: Human T lymphocytic leukemia cell line: Jurkat; test: as above; details: 96 h; for inhibition at 0.01 µM: read-out: Inhibition Rate at 10 nM (%); for inhibition at 0.5 µM: read-out: Inhibition Rate at 500 nM (%)
Method: as §1, §2, §3

[4] = target: T1, human Cereblon WT GST-tagged protein (Homo sapiens, UniProt Q96SW2); test: CRBN-binding affinity, HTRF (CEREBLON BINDING kit); details: for inhibition at 0.5 µM: read-out: Inhibition Rate at 0.5 µM (%); for inhibition at 2 µM: read-out: Inhibition Rate at 2 µM (%)
T1 construct: purchased CISBIO 64BDCRBNPEH

IKZF1 = target: T2, IKZF1 (Homo sapiens, UniProt Q13422+Q96SW2); test: Western blot, degradation of substrate protein in hPBMCs; format: cell-based
T2 construct: effects of the compounds of the present disclosure on the expression of target proteins in cells; endogenous in cells; host or cells: human PBMCs (Milecell Biotechnologies)

WEE1 = target: T3, WEE1 (Homo sapiens, UniProt P30291+Q96SW2); test: as above; format: cell-based
T3 construct: effects of the compounds of the present disclosure on the expression of target proteins in cells; endogenous in cells; host or cells: human PBMCs (Milecell Biotechnologies)

CK1α = target: T4, CK1α (Homo sapiens, UniProt P48729+Q96SW2); test: as above; format: cell-based
T4 construct: effects of the compounds of the present disclosure on the expression of target proteins in cells; endogenous in cells; host or cells: human PBMCs (Milecell Biotechnologies)

IKZF3 = target: T5, IKZF3 (Homo sapiens, UniProt Q96SW2+Q9UKT9); test: as above; format: cell-based
T5 construct: effects of the compounds of the present disclosure on the expression of target proteins in cells; endogenous in cells; host or cells: human PBMCs (Milecell Biotechnologies)

IKZF2 = target: T6, IKZF2 (Homo sapiens, UniProt Q96SW2+Q9UKS7); test: as above; format: cell-based
T6 construct: effects of the compounds of the present disclosure on the expression of target proteins in cells; endogenous in cells; host or cells: human PBMCs (Milecell Biotechnologies)

[5] = system: Human acute T lymphocytic leukemia cell (Molt4); test: Tumor cell proliferation inhibition (CellTiter-Meiluncell luminescent cell viability assay); details: MOLT-4, 96 h; for inhibition at 0.01 µM: read-out: Inhibition Rate at 10 nM (%); for inhibition at 0.5 µM: read-out: Inhibition Rate at 500 nM (%)
Method: as §1, §2, §3

[6] = system: Human myeloid monocytic leukemia cell (MV-4-11); test: as above; details: MV4-11, 96 h; for inhibition at 0.01 µM: read-out: Inhibition Rate at 10 nM (%); for inhibition at 0.5 µM: read-out: Inhibition Rate at 500 nM (%)
[7] = system: Human T cell acute lymphoblastic leukemia cell (CCRF-CEM); test: as above; details: 96 h; for inhibition at 0.01 µM: read-out: Inhibition Rate at 10 nM (%); for inhibition at 0.5 µM: read-out: Inhibition Rate at 500 nM (%)
[8] = system: Human multiple myeloma peripheral blood B lymphocyte cell (RPMI-8226); test: as above; details: RPMI-8226, 96 h
[9] = system: Human breast cancer cell (MCF-7); test: as above; details: MCF7, 96 h
Method: as §1, §2, §3

[10] = Western blot, 24 hours of compound treatment, compounds tested at 50 nM and 500 nM (concentration for the table not stated)
[11] = read-out: Inhibition Rate at 10 nM (%)
[12] = read-out: Inhibition Rate at 500 nM (%)
[13] = 24 hours treatment, compounds at 50 nM and 500 nM (concentration behind the class not stated)

T1 sequence (Q96SW2 whole entry): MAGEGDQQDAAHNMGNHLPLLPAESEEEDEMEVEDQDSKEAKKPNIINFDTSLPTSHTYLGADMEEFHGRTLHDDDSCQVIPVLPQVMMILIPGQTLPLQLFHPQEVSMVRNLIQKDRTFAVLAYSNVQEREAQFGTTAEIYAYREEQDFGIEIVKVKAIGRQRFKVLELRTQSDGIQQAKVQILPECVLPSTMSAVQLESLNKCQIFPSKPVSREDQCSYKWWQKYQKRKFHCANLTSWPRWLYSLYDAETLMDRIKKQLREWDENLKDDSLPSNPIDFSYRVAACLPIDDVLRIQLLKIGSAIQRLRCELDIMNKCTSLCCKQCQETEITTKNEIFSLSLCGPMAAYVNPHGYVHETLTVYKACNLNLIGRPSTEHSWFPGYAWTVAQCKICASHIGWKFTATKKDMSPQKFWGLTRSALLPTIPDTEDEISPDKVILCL
T5 sequence (Q9UKT9 whole entry): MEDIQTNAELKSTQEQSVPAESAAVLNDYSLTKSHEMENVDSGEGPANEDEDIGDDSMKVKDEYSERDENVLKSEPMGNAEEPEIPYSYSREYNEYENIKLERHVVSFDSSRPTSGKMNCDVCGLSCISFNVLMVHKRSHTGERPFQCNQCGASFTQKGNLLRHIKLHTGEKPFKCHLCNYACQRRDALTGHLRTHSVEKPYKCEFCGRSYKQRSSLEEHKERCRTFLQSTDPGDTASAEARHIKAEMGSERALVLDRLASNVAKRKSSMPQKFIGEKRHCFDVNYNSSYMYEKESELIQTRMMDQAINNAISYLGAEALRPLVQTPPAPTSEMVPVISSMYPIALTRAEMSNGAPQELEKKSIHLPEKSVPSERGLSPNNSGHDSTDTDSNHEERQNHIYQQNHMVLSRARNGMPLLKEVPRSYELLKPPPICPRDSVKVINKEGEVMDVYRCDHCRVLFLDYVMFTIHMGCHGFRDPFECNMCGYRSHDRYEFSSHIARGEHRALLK
T5 sequence (Q96SW2 whole entry): as the sequence (Q96SW2 whole entry) above
T5 sequence (Q16531 whole entry partner): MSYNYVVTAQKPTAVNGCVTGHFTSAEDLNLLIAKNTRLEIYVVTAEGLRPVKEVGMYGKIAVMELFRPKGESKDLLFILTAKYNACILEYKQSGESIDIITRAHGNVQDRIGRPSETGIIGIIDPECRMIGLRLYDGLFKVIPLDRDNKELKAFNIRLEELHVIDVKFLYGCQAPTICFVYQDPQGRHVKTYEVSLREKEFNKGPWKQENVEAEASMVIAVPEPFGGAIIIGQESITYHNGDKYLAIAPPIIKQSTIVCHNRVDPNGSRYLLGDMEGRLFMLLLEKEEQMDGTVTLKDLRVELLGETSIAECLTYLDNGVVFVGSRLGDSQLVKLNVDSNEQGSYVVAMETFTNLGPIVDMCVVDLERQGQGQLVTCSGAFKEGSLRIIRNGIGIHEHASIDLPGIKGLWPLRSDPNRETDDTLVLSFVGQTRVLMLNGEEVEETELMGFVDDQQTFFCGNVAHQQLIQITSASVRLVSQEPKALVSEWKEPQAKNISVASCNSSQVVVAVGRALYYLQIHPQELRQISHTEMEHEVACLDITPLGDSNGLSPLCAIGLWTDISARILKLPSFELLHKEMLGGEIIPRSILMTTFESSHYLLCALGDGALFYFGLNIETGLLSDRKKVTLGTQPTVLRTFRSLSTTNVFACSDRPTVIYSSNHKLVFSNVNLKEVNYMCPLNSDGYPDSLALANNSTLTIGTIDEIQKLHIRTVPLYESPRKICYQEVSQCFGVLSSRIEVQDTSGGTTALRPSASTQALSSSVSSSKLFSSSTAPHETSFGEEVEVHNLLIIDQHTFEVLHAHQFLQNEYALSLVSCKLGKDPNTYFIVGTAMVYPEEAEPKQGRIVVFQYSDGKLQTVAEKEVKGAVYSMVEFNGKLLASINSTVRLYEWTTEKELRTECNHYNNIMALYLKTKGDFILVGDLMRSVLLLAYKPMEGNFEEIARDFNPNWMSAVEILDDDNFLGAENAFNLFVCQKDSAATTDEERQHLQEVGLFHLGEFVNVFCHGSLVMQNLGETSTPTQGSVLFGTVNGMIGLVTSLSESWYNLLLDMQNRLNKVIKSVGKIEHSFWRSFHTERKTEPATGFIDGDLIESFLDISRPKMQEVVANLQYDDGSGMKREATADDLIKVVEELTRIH
T3 sequence (P30291 whole entry): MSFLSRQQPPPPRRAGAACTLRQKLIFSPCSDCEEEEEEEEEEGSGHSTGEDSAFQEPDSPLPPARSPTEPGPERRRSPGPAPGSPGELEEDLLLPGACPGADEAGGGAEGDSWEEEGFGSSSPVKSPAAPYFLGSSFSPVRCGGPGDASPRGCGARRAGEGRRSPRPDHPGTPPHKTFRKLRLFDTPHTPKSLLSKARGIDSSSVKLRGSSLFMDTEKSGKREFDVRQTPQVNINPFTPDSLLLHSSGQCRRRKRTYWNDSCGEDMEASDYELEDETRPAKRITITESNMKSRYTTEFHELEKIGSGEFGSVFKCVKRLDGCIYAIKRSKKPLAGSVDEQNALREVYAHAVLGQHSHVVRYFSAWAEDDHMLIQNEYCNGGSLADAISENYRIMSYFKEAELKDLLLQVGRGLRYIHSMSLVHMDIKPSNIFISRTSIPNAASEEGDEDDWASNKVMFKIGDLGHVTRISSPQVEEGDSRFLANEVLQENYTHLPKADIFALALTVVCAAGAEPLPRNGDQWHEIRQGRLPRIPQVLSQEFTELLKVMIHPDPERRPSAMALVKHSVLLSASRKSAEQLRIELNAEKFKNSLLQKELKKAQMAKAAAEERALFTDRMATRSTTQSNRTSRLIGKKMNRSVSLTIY
T3 sequence (Q96SW2 whole entry): as the sequence (Q96SW2 whole entry) above
T3 sequence (Q16531 whole entry partner): as the sequence (Q16531 whole entry partner) above
T2 sequence (Q13422 whole entry): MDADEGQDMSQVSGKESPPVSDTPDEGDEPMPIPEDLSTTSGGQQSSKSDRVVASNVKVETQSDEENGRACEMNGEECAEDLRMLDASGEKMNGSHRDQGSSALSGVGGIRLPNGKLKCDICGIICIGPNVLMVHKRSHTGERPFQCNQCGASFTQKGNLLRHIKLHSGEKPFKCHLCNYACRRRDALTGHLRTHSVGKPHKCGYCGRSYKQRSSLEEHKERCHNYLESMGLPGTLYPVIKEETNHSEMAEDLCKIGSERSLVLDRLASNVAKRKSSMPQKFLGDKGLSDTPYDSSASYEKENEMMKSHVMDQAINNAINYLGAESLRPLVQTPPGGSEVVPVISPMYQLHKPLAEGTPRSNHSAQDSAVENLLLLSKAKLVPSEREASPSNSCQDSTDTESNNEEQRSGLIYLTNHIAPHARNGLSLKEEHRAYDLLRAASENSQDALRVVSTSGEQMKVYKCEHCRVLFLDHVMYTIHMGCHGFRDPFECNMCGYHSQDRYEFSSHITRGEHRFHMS
T2 sequence (Q96SW2 whole entry): as the sequence (Q96SW2 whole entry) above
T2 sequence (Q16531 whole entry partner): as the sequence (Q16531 whole entry partner) above
T6 sequence (Q9UKS7 whole entry): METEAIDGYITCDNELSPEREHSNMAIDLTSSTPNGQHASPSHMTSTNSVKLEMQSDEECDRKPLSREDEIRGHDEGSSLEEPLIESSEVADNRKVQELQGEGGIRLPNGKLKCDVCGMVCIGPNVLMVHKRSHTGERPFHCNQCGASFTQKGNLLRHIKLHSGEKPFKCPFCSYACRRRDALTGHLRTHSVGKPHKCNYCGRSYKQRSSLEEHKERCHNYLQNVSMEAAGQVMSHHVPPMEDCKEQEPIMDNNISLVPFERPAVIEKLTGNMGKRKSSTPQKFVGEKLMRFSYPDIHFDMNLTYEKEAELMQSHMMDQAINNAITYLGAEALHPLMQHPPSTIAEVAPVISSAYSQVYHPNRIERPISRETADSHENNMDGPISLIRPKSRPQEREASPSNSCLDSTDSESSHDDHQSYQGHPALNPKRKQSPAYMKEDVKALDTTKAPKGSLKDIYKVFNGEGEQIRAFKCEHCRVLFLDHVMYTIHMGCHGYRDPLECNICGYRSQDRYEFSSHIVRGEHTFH
T6 sequence (Q96SW2 whole entry): as the sequence (Q96SW2 whole entry) above
T6 sequence (Q16531 whole entry partner): as the sequence (Q16531 whole entry partner) above
T4 sequence (P48729 whole entry): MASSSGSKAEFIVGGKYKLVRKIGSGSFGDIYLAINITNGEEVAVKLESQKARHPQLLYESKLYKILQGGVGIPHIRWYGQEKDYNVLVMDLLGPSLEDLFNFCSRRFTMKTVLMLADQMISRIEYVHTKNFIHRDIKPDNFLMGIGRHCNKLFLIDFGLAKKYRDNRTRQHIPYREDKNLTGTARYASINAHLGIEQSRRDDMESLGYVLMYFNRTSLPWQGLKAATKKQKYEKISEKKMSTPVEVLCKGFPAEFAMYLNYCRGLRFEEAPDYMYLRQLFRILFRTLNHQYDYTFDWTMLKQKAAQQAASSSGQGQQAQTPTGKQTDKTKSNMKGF
T4 sequence (Q96SW2 whole entry): as the sequence (Q96SW2 whole entry) above
T4 sequence (Q16531 whole entry partner): as the sequence (Q16531 whole entry partner) above

Row | inhibition at 0.5 µM [4] [%] | inhibition at 2 µM [4] [%] | SMILES | GSPT1 substrate protein remaining % (GSPT1; [10]) | inhibition at 0.01 µM [1] [%] | inhibition at 0.5 µM [1] [%] | inhibition at 0.01 µM [2] [%] | inhibition at 0.5 µM [2] [%] | inhibition at 0.01 µM [3] [%] | inhibition at 0.5 µM [3] [%] | IKZF 1 substrate protein remaining % (IKZF1; [10]) | Wee1 substrate protein remaining % (WEE1; [10]) | CK1α substrate protein remaining % (CK1α; [10]) | IKZF3 substrate protein remaining % (IKZF3; [10]) | IKZF2 substrate protein remaining % (IKZF2; [10]) | inhibition at 0.01 µM [6] [%] | inhibition at 0.5 µM [6] [%] | other results
1 | 60 to 80 | 80 to 100 | O=C1CCC(N2Cc3cc(CN4CCN(c5cccc(F)c5F)CC4)ccc3C2=S)C(=O)N1 (centres unmarked) [GT-08210, 3-(5-((4-(2,3-difluorophenyl)piperazin-1-yl)methyl)-1-thioxoisoindolin-2-yl)piperidine-2,6-dione] | A (0% ≤ substrate protein remaining % ≤ 80%) | 20 to 30 | 80 to 100 | 20 to 30 | 80 to 100 | 20 to 30 | 60 to 70 | A (0% ≤ substrate protein remaining % ≤ 80%) | A (0% ≤ substrate protein remaining % ≤ 80%) | B (80%< substrate protein remaining %≤ 100%) | A (0% ≤ substrate protein remaining % ≤ 80%) | A (0% ≤ substrate protein remaining % ≤ 80%) | 5 to 10 | 80 to 100 | inhibition at 0.01 µM [5]: 10 to 20%; inhibition at 0.5 µM [5]: 80 to 100%
2 | 60 to 80 | 80 to 100 | COc1ccccc1N1CCN(Cc2cccc3c2CN(C2CCC(=O)NC2=O)C3=S)CC1 (centres unmarked) [GT-08260, 3-(4-((4-(2-methoxyphenyl)piperazin-1-yl)methyl)-1-thioxoisoindolin-2-yl)piperidine-2,6-dione] | A (0% ≤ substrate protein remaining % ≤ 80%) | – | – | – | – | – | – | B (80%< substrate protein remaining %≤ 100%) | A (0% ≤ substrate protein remaining % ≤ 80%) | B (80%< substrate protein remaining %≤ 100%) | B (80%< substrate protein remaining %≤ 100%) | B (80%< substrate protein remaining %≤ 100%) | – | – | inhibition at 0.01 µM [7]: 20 to 30%; inhibition at 0.5 µM [7]: 40 to 50%; inhibition at 0.01 µM [8, 11]: 70 to 80%; inhibition at 0.5 µM [8, 12]: 70 to 80%
3 | 53 to 60 | 80 to 100 | O=C1CCC(N2Cc3c(CN4CCN(c5cccc(F)c5)CC4)cccc3C2=S)C(=O)N1 (centres unmarked) [GT-08263, 3-(4-((4-(3-fluorophenyl)piperazin-1-yl)methyl)-1-thioxoisoindolin-2-yl)piperidine-2,6-dione] | A (0% ≤ substrate protein remaining % ≤ 80%) | 50 to 60 | 60 to 70 | – | – | 20 to 30 | 30 to 40 | B (80%< substrate protein remaining %≤ 100%) | A (0% ≤ substrate protein remaining % ≤ 80%) | A (0% ≤ substrate protein remaining % ≤ 80%) | B (80%< substrate protein remaining %≤ 100%) | B (80%< substrate protein remaining %≤ 100%) | 60 to 80 | 80 to 100 | –
4 | 30 to 40 | 60 to 80 | O=C1CCC(N2Cc3c(CN4CCN(c5ccc(Cl)cc5)CC4)cccc3C2=S)C(=O)N1 (centres unmarked) [GT-08266, 3-(4-((4-(4-chlorophenyl)piperazin-1-yl)methyl)-1-thioxoisoindolin-2-yl)piperidine-2,6-dione] | A (0% ≤ substrate protein remaining % ≤ 80%) | 50 to 60 | 50 to 60 | 40 to 50 | 50 to 60 | – | – | B (80%< substrate protein remaining %≤ 100%) | A (0% ≤ substrate protein remaining % ≤ 80%) | B (80%< substrate protein remaining %≤ 100%) | B (80%< substrate protein remaining %≤ 100%) | B (80%< substrate protein remaining %≤ 100%) | 60 to 80 | 80 to 100 | inhibition at 0.01 µM [9, 11]: 40 to 50%; inhibition at 0.5 µM [9, 12]: 40 to 50%
5 | – | – | O=C1CCC(N2Cc3c(CN4CC=C(c5cccc(F)c5Cl)CC4)cccc3C2=S)C(=O)N1 (centres unmarked) [GT-08301, 3-(4-((4-(2-chloro-3-fluorophenyl)-3,6-dihydropyridin-1(2H)-yl)methyl)-1-thioxoisoindolin-2-yl)piperidine-2,6-dione] | A (0% ≤ substrate protein remaining % ≤ 80%) | 50 to 60 | 50 to 60 | – | – | 20 to 30 | 30 to 40 | B (80%< substrate protein remaining %≤ 100%) | A (0% ≤ substrate protein remaining % ≤ 80%) | A (0% ≤ substrate protein remaining % ≤ 80%) | B (80%< substrate protein remaining %≤ 100%) | B (80%< substrate protein remaining %≤ 100%) | 40 to 60 | 40 to 60 | –
6 | – | – | Cc1ccc(Sc2ccccc2N2CCN(Cc3cccc4c3CN(C3CCC(=O)NC3=O)C4=S)CC2)c(C)c1 (centres unmarked) [GT-08332, 3-(4-((4-(2-((2,4-dimethylphenyl)thio)phenyl)piperazin-1-yl)methyl)-1-thioxoisoindolin-2-yl)piperidine-2,6-dione] | – | -5 to 0 | 80 to 100 | 10 to 20 | 80 to 100 | 0 to 5 | 80 to 100 | – | – | – | – | – | -5 to 0 | 60 to 80 | GSPT1 substrate protein remaining % (GSPT1; [13]): A (0% ≤ substrate protein remaining % ≤ 80%); inhibition at 0.01 µM [7]: -5 to 0%; inhibition at 0.5 µM [7]: 80 to 100%; IKZF 1 substrate protein remaining % (IKZF1; [13]): A (0% ≤ substrate protein remaining % ≤ 80%); Wee1 substrate protein remaining % (WEE1; [13]): A (0% ≤ substrate protein remaining % ≤ 80%); CK1α substrate protein remaining % (CK1α; [13]): A (0% ≤ substrate protein remaining % ≤ 80%); IKZF3 substrate protein remaining % (IKZF3; [13]): B (80%< substrate protein remaining %≤ 100%); IKZF2 substrate protein remaining % (IKZF2; [13]): A (0% ≤ substrate protein remaining % ≤ 80%); inhibition at 0.01 µM [5]: -5 to 0%; inhibition at 0.5 µM [5]: 80 to 100%

Row | SMILES | inhibition at 0.5 µM [4] [%] | inhibition at 2 µM [4] [%] | GSPT1 substrate protein remaining % (GSPT1; [10]) | inhibition at 0.01 µM [1] [%] | inhibition at 0.5 µM [1] [%] | inhibition at 0.01 µM [2] [%] | inhibition at 0.5 µM [2] [%] | inhibition at 0.01 µM [3] [%] | inhibition at 0.5 µM [3] [%] | IKZF 1 substrate protein remaining % (IKZF1; [10]) | Wee1 substrate protein remaining % (WEE1; [10]) | CK1α substrate protein remaining % (CK1α; [10]) | IKZF3 substrate protein remaining % (IKZF3; [10]) | IKZF2 substrate protein remaining % (IKZF2; [10]) | inhibition at 0.01 µM [6] [%] | inhibition at 0.5 µM [6] [%] | other results
7 | CC1(C)CCC(CN2CC3CCC(C2)N3Cc2cccc3c2CN(C2CCC(=O)NC2=O)C3=S)=C(c2ccc(Cl)cc2)C1 (centres unmarked) [GT-08292, 3-(4-((3-((4'-chloro-5,5-dimethyl-3,4,5,6-tetrahydro-[1,1'-biphenyl]-2-yl)methyl)-3,8-diazabicyclo[3.2.1]octan-8-yl)methyl)-1-thioxoisoindolin-2-yl)piperidine-2,6-dione] | 30 to 40 | 60 to 80 | A (0% ≤ substrate protein remaining % ≤ 80%) | 60 to 70 | 50 to 60 | – | – | 30 to 40 | 30 to 40 | B (80%< substrate protein remaining %≤ 100%) | A (0% ≤ substrate protein remaining % ≤ 80%) | A (0% ≤ substrate protein remaining % ≤ 80%) | B (80%< substrate protein remaining %≤ 100%) | B (80%< substrate protein remaining %≤ 100%) | 60 to 80 | 60 to 80 | –

— patent publication EP4745135A1 (Gluetacs Therapeutics (Shanghai) Co., Ltd., priority 2023, dated 2025)
